Experiments:
[1] = test system: FimH^wt-expressing E. coli; assay: Inhibition of bacterial adhesion to surface-immobilized yeast mannan; type: cell-based
Procedure: (§1) Microtiter 96-well plates were coated with 20 μg/ml of yeast mannan or RNaseB (Sigma-Aldrich) in 0.02 M NaHCO3 buffer at pH 9.6. The wells were quenched with 0.2% bovine serum albumin (BSA, Sigma-Aldrich) in PBS for 20 min. Bacteria expressing FimH adhesin (OD=1 or OD=2) were first preincubated with different concentrations of mAbs for 1 h at 37° C. and then allowed to adhere to ligand-coated surface for another 1 h. After an extensive washing with PBS, plates were dried and bound bacteria were stained with 0.1% crystal violet (Becton Dickinson) for 20 min at room temperature (RT). The wells were washed with water and 50% ethanol was added to the wells. The absorbance was measured at 600 nm.

[2] = test system: Klebsiella pneumoniae; assay: Detachment of 14 h-old Klebsiella biofilm; type: cell-based; details: 14-h-old biofilm, 1% mannose or 50 μg/ml mAb (FIG. 11B)
Procedure: (§2) FIG. 11. […] Data (mean±SD, n=3 independent experiments). […] Data (mean±SD, n=3 independent experiments). Biofilm was quantified using the crystal violet staining method. *, P≤0.05, **, P≤0.0005 (one sample t-test).
(§3) Microtiter 96-well plates were coated with 20 μg/mL of yeast mannan or RNaseB (Sigma-Aldrich) in 0.02 M NaHCO3 buffer at pH 9.6. Bacterial strains grown overnight in 3 ml LB media were spun and washed 1× with minimal essential media (MEM, Difco). […] After washing with PBS, formed biofilms were stained with 0.1% (v/v) crystal violet (Becton Dickinson) as described above for bacterial adhesion assay. […] The wells were washed 3 times with PBS and stain for biofilm detection as described above.

[3] = test system: E. coli UTI89; assay: Detachment of 16 h-old biofilm on mannan-coated surface; type: cell-based; details: for effect on detachment of pre-formed biofilm: 1% mannose or 50 μg/ml mAb (FIG. 7B)
Procedure: as §3

[4] = test system: E. coli UTI89; assay: Mouse bladder infection, transurethral inoculation of mAb-pretreated bacteria; type: in vivo; details: C57BL/6 mice, 24 h post infection, bacteria pretreated with 500 μg/ml mAb 1 h
Procedure: Infection of 10- to 11-week-old C57BL/6 female mice was performed as described elsewhere (Kisiela, et al. 2013). Briefly, bacteria were grown in LB medium without shaking for 48 h, harvested, washed twice in PBS and resuspended in PBS at a final concentration of 10^8 CFU per ml. Bacteria were pretreated with 500 μg/ml mAbs for 1 h at 37° C. prior to inoculation. Mice were anesthetized with ketamine/xylazine and twenty-five microliters of mAb-pretreated bacteria in PBS were inoculated transurethrally into mouse bladders via catheter. After 24 h, mice were sacrificed and bladders were aseptically removed and homogenized in 1 mL PBS. Serial dilutions were plated and total bacterial load per bladder was calculated. Statistical significance was determined using two-tailed Mann-Whitney test (GraphPad Prism 6.0 software, La Jolla, Ca).

[5] = test system: E. coli CFT073; assay: Passive and active immunization, diabetic mice, bacterial load in urine; type: in vivo; details: diabetic (STZ) mice; mAb 150 μg i.p. or LD antigen 15 μg s.c.
Procedure: (§4) The intraperitoneal injection was completed 1 day prior and 1 day after challenge with CFT073 E. coli (A07 Study for Vaccine candidate, Contract #HHSN2722010000401, Task Order #HHSN27200005, Galveston). […] Mixtures of antibodies for passive transfer were prepared as 150 μg per mouse doses in 50 μl volumes of sterile HBS. The effect of the antibodies was evaluated in two mice models that included non-diabetic and diabetic C57BI/6 mice, respectively. Mice injected with incomplete Freund's adjuvant only (IFA) were used as the control (mock) group in each model. Bacterial load in mice urine was analyzed daily over 14-days' time period starting 24 h after bacterial challenge.
Diabetic state in C57BI/6 mice was induced by the 4 days-treatment with streptozotocin (STZ) by intraperitoneal injection. Groups of 100 C57BI/6 mice were randomly divided into 5 groups of ten for diabetic and for non-diabetic states respectively. […] Bacterial load in mice urine was analyzed daily over 14-days' time starting 24 h after bacterial challenge. Genomic bacterial load was quantified in each urine sample (10 μl) by qPCR. […] For log10 transformation, zero counts (E. coli not detected) were replaced with value 1. […] After exclusion of outliers, 617 (out of initial 673, 91.6%) observations were analyzed using same model.

[6] = test system: E. coli UTI89; assay: Biofilm formation on mannan-coated surface; type: cell-based; details: 1% mannose or 50 μg/ml mAb added prior to growth (FIG. 7A)
Procedure: as §3

[7] = test system: Klebsiella pneumoniae; assay: Inhibition of Klebsiella adhesion to surface-immobilized RNaseB; type: cell-based; details: 50 μg/ml mAb (FIG. 10)
Procedure: FIG. 10. […] Data are mean±SD (n=2 independent experiments).
as §1

[8] = test system: FimH^wt:(186-201)FocH; assay: Cross-interference of inhibitory mAbs binding to FimH; design: species or system E. coli; details: FimH pre-incubated with antibody, biotinylated mAb binding (FIG. 16)
Procedure: FIG. 16. Inhibitory mAbs interfere with each other's binding to FimH. […] The data shown are mean±SD of triplicates from one representative experiment of multiple experiments that were performed with similar settings.

[9] = test system: Klebsiella pneumoniae; assay: Klebsiella biofilm formation on RNaseB-coated surfaces; type: cell-based; details: two Klebsiella FimH variants, 1% mannose or 50 μg/ml mAb (FIG. 11A)
Procedure: as §2, §3

[10] = test system: Klebsiella fimbrial FimH; assay: Binding of anti-E. coli FimH antibodies to Klebsiella fimbrial FimH; design: species or system Klebsiella pneumoniae; details: FimH^wt and FimH^S62A, 50 and 5 μg/ml mAb (FIG. 9)
Procedure: FIG. 9. Recognition of Klebsiella FimH by anti-E. coli FimH antibodies. […] Type 1 fimbriae carrying different FimH variants (FimH^wt and FimH^S62A mutant) were incubated with different concentrations of mAbs (50 and 5 μg/ml). Data shown are mean±SD of duplicates from one representative experiment.

[11] = test system: E. coli CFT073; assay: Passive and active immunization, non-diabetic mice, bacterial load in urine; type: in vivo
Procedure: as §4
Diabetic state in C57BI/6 mice was induced by the 4 days-treatment with streptozotocin (STZ) by intraperitoneal injection. Groups of 100 C57BI/6 mice were randomly divided into 5 groups of ten for diabetic and for non-diabetic states respectively. […] Mice were challenged with CFT073 UPEC strain (1×10^6 cfu/50 μl per mouse) via intraurethral catheterization under isoflurane anesthesia. Bacterial load in mice urine was analyzed daily over 14-days' time starting 24 h after bacterial challenge. Genomic bacterial load was quantified in each urine sample (10 μl) by qPCR. Statistical analysis of the data was performed using the Generalized Estimating Equation model (GEE) (xtgee command in STATA software, StataCorp. 2015. Stata Statistical Software: Release 14. College Station, Tex.: StataCorp LP). Overall, 1400 observations were made for 100 mice over 14 days. Out of 1,400 total 237 observations were missing (no urine provided) and were excluded from subsequent analysis. The mice ID were set as a panel variable, treatment type and days as predictor variables with interaction allowed between them; and E. coli counts as an outcome variable. […] For log10 transformation, zero counts (E. coli not detected) were replaced with value 1. […] After exclusion of outliers, 617 (out of initial 673, 91.6%) observations were analyzed using same model.

Sequence of FimH^wt:(186-201)FocH (P08191 22-179 limits assumed): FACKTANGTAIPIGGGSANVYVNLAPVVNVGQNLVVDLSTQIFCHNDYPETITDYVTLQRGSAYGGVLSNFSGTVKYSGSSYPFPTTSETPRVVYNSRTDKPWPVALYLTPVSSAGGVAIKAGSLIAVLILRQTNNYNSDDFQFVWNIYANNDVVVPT

Substance	difference in inhibitory potency (IC50) mAb926 vs mAb475 [1]	inhibition of bacterial adhesion at its KD concentration ([1]; antibody at its KD concentration)	destabilization of pre-formed biofilm [2]	biofilm reduction ([3]; 50 μg/ml mAb (FIG. 7B))	effect on detachment of pre-formed biofilm [3]	reduction in bacteria recovered from bladder [4]	effect on bacterial counts in urine vs mock group [5]	effect on biofilm formation [6]	effect on Klebsiella adhesion to RNaseB [7]	interference with the other inhibitory mAb's binding to FimH [8]	inhibition of biofilm formation [9]	binding to Klebsiella FimH compared with E. coli FimH [10]	estimated average log10 of bacterial counts in urine ([11]; non-diabetic C57BI/6 mice, day 1 after challenge, 150 μg mAb i.p. 1 day prior and 1 day after challenge)	estimated log10 bacterial counts in urine ([11]; non-diabetic C57BI/6 mice, day 3 after challenge, 150 μg mAb i.p.)	effect on bacterial counts in urine vs mock group ([11]; non-diabetic mice, mAb 150 μg i.p. or LD antigen 15 μg s.c.)
mAb926: mouse monoclonal anti-FimH antibody, VL SEQ ID NO: 3, VH SEQ ID NO: 4; non-competitive parasteric inhibitor	32 fold	> 50%	significant (P=0.0005) destabilization of the biofilm	93%	effective dissolution of the biofilm	83%	reduced bacterial load	prevented formation	significantly reduced bacterial adhesion	strongly cross-interfere with each other's binding to FimH	76-86%	same level of binding to both FimH adhesins	1.31±0.5 log10	0.99±0.4 log10	significant decrease of bacterial counts in urine
α-methyl-D-mannopyranoside [mannose, reference compound]					neither mAb475 nor soluble mannose caused substantial detachment			prevented formation			38-67%				

From patent US10722580B2, “Compositions and methods for treatment and prevention of uropathogenic E. coli infection” (UNIVERSITY OF WASHINGTON, priority 2015, dated 2020)
